The test system of one series is certain parasites. Conditions: background; cited from earlier work.
For series [1] the following is noted: background; cited from earlier work.
The test system of another series is Leishmania donovani. Kind of series: In vitro antiparasitic activity against Leishmania donovani. In kind it is cell-based. Conditions: for IC50: Leishmania donovani, 120 h, 5 days at 26° C., read-out: ED50 (the source's name). The protocol: (§1) The antiparasitic activities of the 1-(5'-0-sulfamoyl-β-D-ribofuranosyl)[1,2,4]triazolo 3-carboxamide, 3-thiocarboxamide and 3-carbonitrile compounds of the invention are shown in various in vitro and in vivo systems. […] These are representative of the protozoan diseases: leishmaniasis, trypanosomiasis, giardiasis and trichomoniasis.
(§2) Leishmania donovani (ATCC #30142)) and Trypanosoma qambiense (TH114, obtained from R. Brun, Schweizer Tropeninstitut, Basel, Switzerland) were grown in THOSMEM, HOSMEM and PPDM-79 media respectively as described in J. J. Marr, R. L. Berens and D. J. Nelson, J. Science. 202, 1018 (1978), J. J. Marr, D. J. Nelson and R. L. Berens, Biochim. Biophys. Acta, 544, 360 (1978) and W. R. Fish, J. J. Marr and R. L. Berens, Biochim. Biophys. Acta, 714, 422 (1982). For drug sensitivity studies these organisms were grown in 10 ml of their respective media in 25 cm^2 tissue culture flasks. Cultures were inoculated to a cell density of […] and incubated for 5 days at 26° C. in a 5% CO2 atmosphere. Final cell density was determined by counting the cells on a Coulter Counter (Model ZBI); control cultures reached a final density of ≈2·10^7 /ml.
(§3) Drug stock solutions were prepared by dissolving the compounds of the invention in 0.1N NaOH and adjusting the final concentration to 2 mg/ml based on extinction coefficient. Drug was added to respective culture media (<2% v/v) and the media filter sterilized. Doses effective against 50% (ED50) and 90% (ED90) were determined by triplicate counting of organisms exposed to various drug concentrations and determining a mean value. Results were expressed as a percentage control.

For a further series, the system named is Trypanosoma gambiense. Kind of series: In vitro antiparasitic activity against Trypanosoma gambiense. In kind it is cell-based. Conditions: for IC50: Trypanosoma brucei, GAMBIENSE, 120 h, 5 days at 26° C., read-out: ED50 (the source's name). The protocol: as §1, §2, §3
The subject of another series is Giardia lamblia. Nature of the series: In vitro antiparasitic activity against Giardia lamblia. It counts as cell-based. Conditions: for IC50: Giardia duodenalis, 72 h, 3 days at 37° C., read-out: ED50 (the source's name); for relative activity against G. lamblia (in words): compared with compound 2. The method, then: as §1
(§4) Giardia lamblia (PI, ATCC #30888) and Trichomonas vaqinalis (ATCC #3301) were grown in modified TYI medium in 13×100 mm screw cap tubes as described in R. L. Berens and J. J. Marr, Biochem. Pharm., 35, 4191 (1986). Cultures were inoculated at a density of 10^4 and incubated for 3 days at 37° C.; control cultures reached densities of ≈1-2·10^6 for G. lamblia and ≈6-7·10^6 for T. vaqinalis. These parasites were counted by chilling tubes on ice for 30 min., then reading the optical density at 650 nm in a Gilford 300-N micro-sample spectrophotometer. Their cell number was obtained by comparing the absorbance to a standard curve constructed from numbers obtained by counting cells in a hemocytometer.
as §3

Another series has as its system Trichomonas vaginalis. Nature of the series: In vitro antiparasitic activity against Trichomonas vaginalis. In kind it is cell-based. Particulars: for IC50: Trichomonas vaginalis, 72 h, 3 days at 37° C., read-out: ED50 (the source's name). The method, then:
as §1, §4, §3

The next series in a line: Toxicity to U937 cells. In kind it is cell-based. Particulars: human, u937 cells; @ 1μg/ml; read-out: % Control (U937 cells).
A further series relates to U937 cells. Kind of series: Toxicity to U937 cells. In kind it is cell-based. Particulars: 1μg/ml.
Another series relates to T. brucei EATRO 110. Nature of the series: Antiparasitic activity against T. brucei EATRO 110 in animals (mouse model). In kind it is in vivo, Trypanosoma brucei. Particulars: mice; for % Cured / Average Survival / Range of Survival: once daily for 3 days. The method, then:
Antiparasitic activity of the compounds of the invention in animals against T. brucei EATRO 110 was determined as described in C. J. Bacchi, R. L. Berens, H. C. Nathan, R. S. Klein, I. A. Elegbe, K. V. Rao, P. P. McCann and J. J. Marr, Antimicrob: Agents Chemother., 31, 1403 (1987) utilizing the mouse model described therein.
Mice (groups of 5) were infected with 2 × 10^5 trypanosomes and
treatment commenced 24 h post inoculation. Drugs were given once daily by
the route indicated for 3 days.

In another series the test system is L. donovani. Nature of the series: Antileishmanial activity in animals (mouse model of visceral leishmaniasis). In kind it is in vivo, Leishmania donovani. Conditions: mice; for LDUs in Liver / Suppression (%): one week. The protocol: Antiparasitic activity of the compounds of the invention in animals against L. donovani was determined in a manner similar to that previously described J. S. Keithly and S. G. Langreth, Amer. J. Trop. Med. Hyg., 32, 485 (1983) for a hamster model. Briefly, mice were infected with 5×10^7 stationary phase promastigotes subcultured in Schneider's drosophila medium with 15% heat inactivated fetal bovine serum. The compounds of the invention were administered by gavage nine days after infection and continued for one week. Positive controls received Pentostam intraperitoneally. Infected, untreated controls received water orally but no intraperitoneal sham injections. Mice were necropsied sixteen days after infection (seven days after the beginning of drug treatment).
% Suppression = 100 100(LDUs of experimental/LDUs of control)

Series [2] concerns Leishmania donovani, Trypanosoma qambiense, Giardia lamblia and Trichomonas vaqinalis. Nature of the series: In vitro antiparasitic activity against various pathogens (overall). It counts as cell-based. Particulars: compounds 2, 3 and 4 compared. The protocol: as §1
Leishmania donovani (ATCC #30142)) and Trypanosoma qambiense (TH114, obtained from R. Brun, Schweizer Tropeninstitut, Basel, Switzerland) were grown in THOSMEM, HOSMEM and PPDM-79 media respectively as described in J. J. Marr, R. L. Berens and D. J. Nelson, J. Science. 202, 1018 (1978), J. J. Marr, D. J. Nelson and R. L. Berens, Biochim. Biophys. […] Final cell density was determined by counting the cells on a Coulter Counter (Model ZBI); control cultures reached a final density of ≈2·10^7 /ml.
Giardia lamblia (PI, ATCC #30888) and Trichomonas vaqinalis (ATCC #3301) were grown in modified TYI medium in 13×100 mm screw cap tubes as described in R. L. Berens and J. J. Marr, Biochem. Pharm., 35, 4191 (1986). […] These parasites were counted by chilling tubes on ice for 30 min., then reading the optical density at 650 nm in a Gilford 300-N micro-sample spectrophotometer. Their cell number was obtained by comparing the absorbance to a standard curve constructed from numbers obtained by counting cells in a hemocytometer. […]

The test system of the next series is adenosine kinase. Conditions: certain human cell lines in-vitro; cited from earlier work.
For series [3] the following is noted: background; cited from earlier work. This is another data set of the same source.

In brackets after ≈: the same amount, converted by molar mass. Entries after “also recorded” stand apart in the source; their conditions may differ. Some results are limits rather than exact numbers.

`Nc1ncnc2c1ncn2[C@@H]1O[C@H](COS(N)(=O)=O)[C@@H](O)[C@H]1O` [5'-O-sulfamoyl adenosine]: the “antiparasitic activity (in words)” value in the series with certain parasites is reported as “active in-vitro against certain parasites”. Besides, the “toxicity (in words)” value in series [1] was “extremely toxic”.

For the compound `NC(=O)c1ncn([C@@H]2O[C@H](COS(N)(=O)=O)[C@@H](O)[C@H]2O)n1` [Compound 2, 1-(5'-O-Sulfamoyl-β-D-ribofuranosyl)[1,2,4]triazole-3-carboxamide], the “antileishmanial activity in vitro (in words)” value in the series with Leishmania donovani is recorded as “significant activity as an antileishmanial agent”. Besides, the IC50 is 0.03 mg/L (≈ 0.0928 µM) in the series with Leishmania donovani, 0.01 to 0.05 mg/L (≈ 0.0309 to 0.155 µM) in the series with Trypanosoma gambiense, 5 to 10 mg/L (≈ 15.5 to 30.9 µM) in the series on Giardia lamblia and more than 25 mg/L with Trichomonas vaginalis. The “activity against T. gambiense (in words)” value in the series with Trypanosoma gambiense is reported as “shows antitrypanosomal activity; also recorded: killed by low concentrations”. For the same compound, the viability in “Toxicity to U937 cells” was determined as 10%. Also, the “toxicity to U937 cells (in words)” value with U937 cells is recorded as “toxic”. Also, the “% Cured” value with T. brucei EATRO 110 (1 mg/kg (i.p.)), in the series on T. brucei EATRO 110 (5 mg/kg (i.p.)), with T. brucei EATRO 110 (10 mg/kg (i.p.)), in the series on T. brucei EATRO 110 (20 mg/kg (i.p.)), with T. brucei EATRO 110 (50 mg/kg (i.p.)) and in the series on T. brucei EATRO 110 (50 mg/kg (i.v.)) was 0% throughout. Further, the “% Cured” value with T. brucei EATRO 110 (50 mg/kg (p.o.)) came to 0%. The “Average Survival” value in the series on T. brucei EATRO 110 (1 mg/kg (i.p.)) came out at 4.6 days; in the series with T. brucei EATRO 110 (5 mg/kg (i.p.)) it was 4.8 days; in the series with T. brucei EATRO 110 (10 mg/kg (i.p.)), 7.4 days; in the series on T. brucei EATRO 110 (20 mg/kg (i.p.)) it was 7.4 days; with T. brucei EATRO 110 (50 mg/kg (i.p.)), 6.4 days; with T. brucei EATRO 110 (50 mg/kg (i.v.)) it was 6.4 days. In addition, the “Average Survival” value in the series with T. brucei EATRO 110 (50 mg/kg (p.o.)) is 11.6 days. Moreover, the “Range of Survival” value in the series on T. brucei EATRO 110 (1 mg/kg (i.p.)) is 4 to 5 days; in the series with T. brucei EATRO 110 (5 mg/kg (i.p.)), 4 to 6 days; with T. brucei EATRO 110 (10 mg/kg (i.p.)), 4 to 11 days; in the series with T. brucei EATRO 110 (20 mg/kg (i.p.)) it was 4 to 11 days; in the series with T. brucei EATRO 110 (50 mg/kg (i.p.)), 4 to 10 days; in the series with T. brucei EATRO 110 (50 mg/kg (i.v.)) it was 4 to 12 days. For the same compound, the “Range of Survival” value with T. brucei EATRO 110 (50 mg/kg (p.o.)) was in the range of 10 to 14 days. The “activity against T. brucei in animals (in words)” value with T. brucei EATRO 110 (i.p., i.v., oral) was “exhibits this activity when administered orally; also recorded: shows intraperitoneal, intravenous and oral activity; also recorded: oral activity of compound 2 is greater than intraperitoneal activity; also recorded: prolonged survival at all dosages tested”. In addition, the “LDUs in Liver” value came to 1244 ± 469 LDUs with L. donovani (10 mg/kg/day, gavage); 765 ± 133 LDUs with L. donovani (20 mg/kg/day, gavage); 501 ± 276 LDUs in the series with L. donovani (50 mg/kg/day, gavage). Further, the “Suppression (%)” value with L. donovani (10 mg/kg/day, gavage) is 18%; with L. donovani (20 mg/kg/day, gavage), 50%; with L. donovani (50 mg/kg/day, gavage), 67%. Besides, in the series on L. donovani (compared with Pentostam), the “antileishmanial activity in animals (in words)” value was “good suppression of the parasites in the livers; also recorded: response equivalent to that of optimized Pentostam; also recorded: as active as Pentostam; also recorded: as active as pentavalent antimony”. For the same compound, in series [2], the “relative antiparasitic activity in vitro (in words)” value was “the most active and had the lowest ED50 against these organisms”.

In the case of `NC(=S)c1ncn([C@@H]2O[C@H](COS(N)(=O)=O)[C@@H](O)[C@H]2O)n1` [Compound 3, 1-(5'-O-Sulfamoyl-β-D-ribofuranosyl)[1,2,4]triazole-3-thiocarboxamide], the IC50 with Leishmania donovani was 2.5 mg/L (≈ 7.37 µM); in the series with Trypanosoma gambiense, 0.5 mg/L (≈ 1.47 µM); in the series on Giardia lamblia, more than 25 mg/L; with Trichomonas vaginalis, 15 mg/L (≈ 44.2 µM). In addition, the “relative activity against G. lamblia (in words)” value with Giardia lamblia is recorded as “about the same as for compound 2”. In the series on Trichomonas vaginalis (compared with compounds 2 or 4), the “relative activity against T. vaginalis (in words)” value was “greater activity; also recorded: greater activity than compounds 2 or 4”.

Turning to `N#Cc1ncn([C@@H]2O[C@H](COS(N)(=O)=O)[C@@H](O)[C@H]2O)n1` [Compound 4, 1-(5'-0-Sulfamoyl-β-D-ribofuranosyl)[1,2,4]triazole-3-carbonitrile], the IC50 with Leishmania donovani was 1 to 5 mg/L (≈ 3.28 to 16.4 µM); with Trypanosoma gambiense, 1 to 5 mg/L (≈ 3.28 to 16.4 µM); in the series on Giardia lamblia, more than 25 mg/L; with Trichomonas vaginalis, more than 25 mg/L. The “relative activity against G. lamblia (in words)” value in the series with Giardia lamblia is on record as “about the same as for compound 2”.

Regarding `O.O.O.O.O.O.O.O.O.O=C([O-])[C@@H]1[O][Sb](=[O])([O][Sb]2(=[O])[O][C@H]([C@H](O)CO)[C@H](O)[C@H](C(=O)[O-])[O]2)[O][C@H]([C@H](O)CO)[C@@H]1O.[Na+].[Na+].[Na+]` (stereo partly drawn) [Pentostam, reference compound], in the series on L. donovani (50 mg/kg/day, intraperitoneal), the “LDUs in Liver” value came to 411 ± 245 LDUs and the “Suppression (%)” value worked out at 73%.

For `NC(=O)c1ncn([C@@H]2O[C@H](CO)[C@@H](O)[C@H]2O)n1` [Ribavirin, 1-(β-D-Ribofuranosyl)[1,2,4]triazole-3-carboxamide], in the series on certain parasites, the “antiparasitic activity (in words)” value is on record as “does not have antiparasitic activity”. The “toxicity (in words)” value in series [1] is on record as “relatively non-toxic”. In addition, the “substrate for adenosine kinase (in words)” value in the series on adenosine kinase is recorded as “substrate for adenosine kinase”. Also, in series [3], the “antiviral activity (in words)” value is on record as “broad spectrum antiviral agent”.

The record behind these values is patent US4992426A, “Antiparasitic 5'-sulfamoyl nucleosides” (Nucleic Acid Research Institute, priority 1989, dated 1991).
